Measurements from patent publication US20210060033A1, “ORALLY ADMINISTERED COMBINATIONS OF BETA-LACTAM ANTIBIOTICS AND AVIBACTAM DERIVATIVES FOR TREATING BACTERIAL INFECTIONS” (priority 2019, published 2021).
≈ marks a conversion by molar mass, not a printed value. Where “and” joins values, the source holds several entries; their conditions need not be identical. Equal values may be shown once. Where a name gives a salt, the structure may show the parent alone. Read-outs that look alike come from different tables or passages of the source.

Key:
K. pneumoniae 19701 [1] = assay: Agar MIC, K. pneumoniae 19701; format: cell-based, Klebsiella pneumoniae
K. pneumoniae 700603 [2] = assay: Microbroth MIC, K. pneumoniae 700603; format: cell-based; conditions: Klebsiella pneumoniae; K. pneumoniae 700603 (SHV-18)
E. coli 470-21711 [3] = assay: Microbroth MIC, E. coli 470-21711; format: cell-based; conditions: Escherichia coli, 47021711; E. coli 470-21711 (CTX-M-15)
E. cloacae 4184 [4] = assay: Microbroth MIC, E. cloacae 4184; format: cell-based; conditions: Enterobacter cloacae; E. cloacae 4184 (De-repressed AmpC)
K. pneumoniae 908 [5] = assay: Agar MIC, K. pneumoniae 908; format: cell-based, Klebsiella pneumoniae
K. pneumoniae 700603 [6] = assay: Agar MIC, K. pneumoniae 700603; format: cell-based; conditions: Klebsiella pneumoniae; K. pneumoniae 700603 (SHV-18)
K. pneumoniae 4582 [7] = assay: Agar MIC, K. pneumoniae 4582; format: cell-based, Klebsiella pneumoniae
K. pneumoniae 79 [8] = assay: Agar MIC, K. pneumoniae 79; format: cell-based, Klebsiella pneumoniae
E. cloacae 4184 [9] = assay: Agar MIC, E. cloacae 4184; format: cell-based; conditions: Enterobacter cloacae; E. cloacae 4184 (De-repressed AmpC)
K. pneumoniae 15160 [10] = assay: Agar MIC, K. pneumoniae 15160; format: cell-based; conditions: Klebsiella pneumoniae; K. pneumoniae 15160 (CTX-M-15, CTX-M-2, OXA-10, OXA-1, SHV-11, TEM-1)
K. pneumoniae 27144 [11] = assay: Agar MIC, K. pneumoniae 27144; format: cell-based; conditions: Klebsiella pneumoniae; K. pneumoniae 27144 (CTX-M-15, OXA-1, OXA-48, SHV-11, TEM-1)
E. cloacae 0065 [12] = assay: Agar MIC, E. cloacae 0065; format: cell-based; conditions: Enterobacter cloacae; E. cloacae 0065 (cAmpC)
E. coli 136-4643 [13] = assay: Microbroth MIC, E. coli 136-4643; format: cell-based; conditions: Escherichia coli, 1364643; E. coli 136-4643 (CTX-M-15)
E. cloacae 0060 [14] = assay: Agar MIC, E. cloacae 0060; format: cell-based; conditions: Enterobacter cloacae; E. cloacae 0060 (cAmpC)
E. cloacae 4182 [15] = assay: Microbroth MIC, E. cloacae 4182; format: cell-based; conditions: Enterobacter cloacae; E. cloacae 4182 (De-repressed AmpC)
K. pneumoniae 27144 [16] = assay: Microbroth MIC, K. pneumoniae 27144; format: cell-based; conditions: Klebsiella pneumoniae; K. pneumoniae 27144 (CTX-M-15, OXA-1, OXA-48, SHV-11, TEM-1)
E. coli ATCC 35218 [17] = assay: Agar MIC, E. coli ATCC 35218; format: cell-based; conditions: Escherichia coli, ATCC35218; E. coli ATCC 35218 (TEM-1 Quality Control Strain)
[18] = tested on: K. pneumoniae ATCC BAA-1705; assay: Microbroth MIC, K. pneumoniae ATCC BAA-1705; format: cell-based; conditions: Klebsiella pneumoniae
E. coli 470-21711 [19] = assay: Agar MIC, E. coli 470-21711; format: cell-based; conditions: Escherichia coli, 47021711; E. coli 470-21711 (CTX-M-15)
E. cloacae 0065 [20] = assay: Microbroth MIC, E. cloacae 0065; format: cell-based; conditions: Enterobacter cloacae; E. cloacae 0065 (cAmpC)
E. coli ATCC 25922 [21] = assay: Agar MIC, E. coli ATCC 25922; format: cell-based; conditions: Escherichia coli, ATCC25922; E. coli ATCC 25922 (Wildtype)
E. cloacae 0060 [22] = assay: Microbroth MIC, E. cloacae 0060; format: cell-based; conditions: Enterobacter cloacae; E. cloacae 0060 (cAmpC)
E. cloacae 0002 [23] = assay: Agar MIC, E. cloacae 0002; format: cell-based, Enterobacter cloacae
K. pneumoniae 908 [24] = assay: Microbroth MIC, K. pneumoniae 908; format: cell-based, Klebsiella pneumoniae
E. cloacae 0002 [25] = assay: Microbroth MIC, E. cloacae 0002; format: cell-based, Enterobacter cloacae
E. cloacae 4182 [26] = assay: Agar MIC, E. cloacae 4182; format: cell-based; conditions: Enterobacter cloacae; E. cloacae 4182 (De-repressed AmpC)
E. coli 136-4643 [27] = assay: Agar MIC, E. coli 136-4643; format: cell-based; conditions: Escherichia coli, 1364643; E. coli 136-4643 (CTX-M-15)
[28] = cited from earlier work
K. pneumoniae 19701 [29] = assay: Microbroth MIC, K. pneumoniae 19701; format: cell-based, Klebsiella pneumoniae
E. coli ATCC 35218 [30] = assay: Microbroth MIC, E. coli ATCC 35218; format: cell-based; conditions: Escherichia coli, ATCC35218; E. coli ATCC 35218 (TEM-1 Quality Control Strain)
K. pneumoniae 79 [31] = assay: Microbroth MIC, K. pneumoniae 79; format: cell-based, Klebsiella pneumoniae
E. coli ATCC 25922 [32] = assay: Microbroth MIC, E. coli ATCC 25922; format: cell-based; conditions: Escherichia coli, ATCC25922
K. pneumoniae 4582 [33] = assay: Microbroth MIC, K. pneumoniae 4582; format: cell-based, Klebsiella pneumoniae
314 Enterobacteriaceae = format: cell-based; conditions: all isolates combined; avibactam at a fixed concentration of 4 μg/mL
[34] = tested on: ESBL-positive isolates (n = 28); format: cell-based, Enterobacteriaceae; conditions: ESBL n = 28; avibactam or clavulanic acid fixed at 4 μg/mL in combinations
K. pneumoniae 15160 [35] = assay: Microbroth MIC, K. pneumoniae 15160; format: cell-based; conditions: Klebsiella pneumoniae; K. pneumoniae 15160 (CTX-M-15, CTX-M-2, OXA-10, OXA-1, SHV-11, TEM-1)
[36] = E. coli ATCC 25922 (Wildtype), read-out: Microbroth MIC

| Compound | MIC (K. pneumoniae 700603 [2]) [µg/mL] | MIC (E. coli 470-21711 [3]) [µg/mL] | MIC (E. cloacae 4184 [4]) [µg/mL] | MIC (K. pneumoniae 700603 [6]) [µg/mL] | MIC (E. cloacae 4184 [9]) [µg/mL] | MIC (K. pneumoniae 15160 [10]) [µg/mL] | MIC (K. pneumoniae 27144 [11]) [µg/mL] | MIC (E. cloacae 0065 [12]) [µg/mL] | MIC (E. coli 136-4643 [13]) [µg/mL] | MIC (E. cloacae 0060 [14]) [µg/mL] | MIC (E. cloacae 4182 [15]) [µg/mL] | MIC (K. pneumoniae 27144 [16]) [µg/mL] | MIC (E. coli ATCC 35218 [17]) [µg/mL] | MIC (E. coli 470-21711 [19]) [µg/mL] | MIC (E. cloacae 0065 [20]) [µg/mL] | MIC (E. coli ATCC 25922 [21]) [µg/mL] | MIC (E. cloacae 0060 [22]) [µg/mL] | MIC (E. cloacae 4182 [26]) [µg/mL] | MIC (E. coli 136-4643 [27]) [µg/mL] | MIC (E. coli ATCC 35218 [30]) [µg/mL] | further results |
| --- | --- | --- | --- | --- | --- | --- | --- | --- | --- | --- | --- | --- | --- | --- | --- | --- | --- | --- | --- | --- | --- |
| NC(=O)[C@@H]1CC[C@@H]2CN1C(=O)N2OS(=O)(=O)O [avibactam, [2S,5R]-2-carbamoyl-7-oxo-1,6-diazabicyclo[3.2.1]octan-6-yl hydrogen sulfate] | 64 | 16 | 32 | 64 | 16 | 16 | 64 | 8 | 256 | 16 | 32 | 512 | 8 | 8 | 16 | 8 | 32 | 16 | 8 | 16 | MIC (K. pneumoniae 19701 [1]; Klebsiella pneumoniae, K. pneumoniae 19701 (KPC-2), read-out: agar MIC): 32 µg/mL; MIC (K. pneumoniae 908 [5]; Klebsiella pneumoniae, K. pneumoniae 908 (KPC-2, SHV-27, TEM-1), read-out: agar MIC): 128 µg/mL; MIC (K. pneumoniae 4582 [7]; Klebsiella pneumoniae, K. pneumoniae 4582 (KPC-3), read-out: agar MIC): 8 µg/mL; MIC (K. pneumoniae 79 [8]; Klebsiella pneumoniae, K. pneumoniae 79 (KPC-3, FOX-5, TEM-1 SHV-11), read-out: agar MIC): 16 µg/mL; MIC ([18]; ATCCBAA1705, K. pneumoniae ATCC BAA-1705 (KPC-2), read-out: Microbroth MIC): 16 µg/mL; MIC (E. cloacae 0002 [23]; Enterobacter cloacae, E. cloacae 0002 (KPC-3, OXA-9, TEM-1A), read-out: agar MIC): 16 µg/mL; MIC (K. pneumoniae 908 [24]; Klebsiella pneumoniae, K. pneumoniae 908 (KPC-2, SHV-27, TEM-1), read-out: Microbroth MIC): 128 µg/mL; MIC (E. cloacae 0002 [25]; Enterobacter cloacae, E. cloacae 0002 (KPC-3, OXA-9, TEM-1A), read-out: Microbroth MIC): 32 µg/mL; plasma protein binding ([28]; assumed for free-drug profiles): 6.95%; MIC (K. pneumoniae 19701 [29]; Klebsiella pneumoniae, K. pneumoniae 19701 (KPC-2), read-out: Microbroth MIC): > 512 µg/mL; Microbroth MIC (K. pneumoniae 79 [31]; K. pneumoniae 79 (KPC-3, FOX-5, TEM-1 SHV-11), listed as AVI): 16 µg/mL and 32 µg/mL; MIC (E. coli ATCC 25922 [32]; [36]): 16 µg/mL; Microbroth MIC (K. pneumoniae 4582 [33]; K. pneumoniae 4582 (KPC-3), listed as AVI): 64 µg/mL and 32 µg/mL |
| Nc1nc(/C(=C/CC(=O)O)C(=O)N[C@@H]2C(=O)N3C(C(=O)O)=CCS[C@H]23)cs1 [ceftibuten, (6R,7R)-7-((Z)-2-(2-amino-4-thiazolyl)-4-carboxycrotonamido)-8-oxo-5-thia-1-azabicyclo(4.2.0)oct-2-ene-2-carboxylic acid] | 0.5 (≈ 1.22 µM) | 64 (≈ 156 µM) | > 64 | 0.5 (≈ 1.22 µM) | > 64 | 32 (≈ 78 µM) | 32 (≈ 78 µM) | > 64 | 32 (≈ 78 µM) | > 64 | > 64 | 64 (≈ 156 µM) | 0.125 (≈ 0.305 µM) | 32 (≈ 78 µM) | > 64 | 0.5 (≈ 1.22 µM) | > 64 | > 64 | 8 (≈ 19.5 µM) | 0.125 (≈ 0.305 µM) | MIC (K. pneumoniae 19701 [1]; Klebsiella pneumoniae, 19701, read-out: agar MIC): 32 µg/mL (≈ 78 µM); MIC (K. pneumoniae 908 [5]; Klebsiella pneumoniae, 908, read-out: agar MIC): 32 µg/mL (≈ 78 µM); MIC90 with addition of avibactam (314 Enterobacteriaceae): 0.5 µg/mL; MIC (K. pneumoniae 4582 [7]; Klebsiella pneumoniae, 4582, read-out: agar MIC): 16 µg/mL (≈ 39 µM); MIC (K. pneumoniae 79 [8]; Klebsiella pneumoniae, 79, read-out: agar MIC): 64 µg/mL (≈ 156 µM); MIC ([18]; ATCCBAA1705, read-out: Microbroth MIC): 16 µg/mL (≈ 39 µM); Estimated MIC90 [34]: >32 µg/mL; MIC (K. pneumoniae 15160 [35]): 64 µg/mL (≈ 156 µM); MIC (E. cloacae 0002 [23]; Enterobacter cloacae, 0002, read-out: agar MIC): 16 µg/mL (≈ 39 µM); MIC (K. pneumoniae 908 [24]; Klebsiella pneumoniae, 908, read-out: Microbroth MIC): 32 µg/mL (≈ 78 µM); MIC (E. cloacae 0002 [25]; Enterobacter cloacae, 0002, read-out: Microbroth MIC): 32 µg/mL (≈ 78 µM); plasma protein binding ([28]; plasma): 65.0%; MIC (K. pneumoniae 19701 [29]; Klebsiella pneumoniae, 19701, read-out: Microbroth MIC): 64 µg/mL (≈ 156 µM); MIC (K. pneumoniae 79 [31]; Klebsiella pneumoniae, 79, read-out: Microbroth MIC): > 64 µg/mL; MIC (E. coli ATCC 25922 [32]; E. coli ATCC 25922 (Wild type), read-out: MIC): 0.5 µg/mL (≈ 1.22 µM); MIC (E. coli ATCC 25922 [32]; [36]): 0.5 µg/mL (≈ 1.22 µM); MIC (K. pneumoniae 4582 [33]; Klebsiella pneumoniae, 4582, read-out: Microbroth MIC): 32 µg/mL (≈ 78 µM) |
